What was measured:
[1] = system: Rattus norvegicus; test: In vivo antigoiter activity in rat; format: functional
[2] = target: T1, Thyroxine-binding globulin (Homo sapiens) (UniProt P05543); test: Binding affinity to thyroxine binding globulin (unknown origin) relative to T4
T1 sequence (whole entry): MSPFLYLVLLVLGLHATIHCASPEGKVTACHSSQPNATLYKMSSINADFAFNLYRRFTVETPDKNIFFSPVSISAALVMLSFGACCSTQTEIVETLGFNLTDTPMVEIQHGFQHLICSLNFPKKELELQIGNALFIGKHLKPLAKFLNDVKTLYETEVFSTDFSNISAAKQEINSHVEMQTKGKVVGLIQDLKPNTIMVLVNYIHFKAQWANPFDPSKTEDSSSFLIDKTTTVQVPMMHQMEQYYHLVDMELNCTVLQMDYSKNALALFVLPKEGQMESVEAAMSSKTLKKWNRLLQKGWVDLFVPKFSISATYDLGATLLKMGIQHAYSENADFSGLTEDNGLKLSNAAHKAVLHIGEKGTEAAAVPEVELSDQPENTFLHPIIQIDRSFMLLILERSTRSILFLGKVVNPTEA

[3] = species: Rattus norvegicus; test: Displacement of radiolabelled L-T3 from thyroid hormone receptor in intact rat hepatic nuclei relative to T3

Row | RBA [2] | log(%) [2] | RBA [3] | log(%) [3] | SMILES | Activity [1] | log(%) [1]
1 | 0.28% | -0.553 | 13.5% | 1.13 | Cc1cc(Oc2c(I)cc(CC(N)C(=O)O)cc2I)ccc1O (centres undefined) | 14.47% | 1.16
2 | 0.1% | -1 | 20% | 1.3 | CC(C)Cc1cc(Oc2c(I)cc(CC(N)C(=O)O)cc2I)ccc1O (centres undefined) | 7.74% | 0.889
3 | 100% | 2 | 12.5% | 1.1 | NC(Cc1cc(I)c(Oc2cc(I)c(O)c(I)c2)c(I)c1)C(=O)O (centres undefined) [THYROXINE] | 18.1% | 1.258
4 | 0.07% | -1.16 | 0.3% | -0.523 | NC(Cc1cc(I)c(Oc2ccc(O)cc2)c(I)c1)C(=O)O (centres undefined) | 0.81% | -0.092

From ChEMBL document CHEMBL3272192, “Thyroxine analogues. 23. Quantitative structure-activity correlation studies of in vivo and in vitro thyromimetic activities” (1977)
